Experimental data reported in patent US20170306409A1, “CANCER PATIENT SELECTION FOR ADMINISTRATION OF WNT SIGNALING INHIBITORS USING RNF43 MUTATION STATUS” (NOVARTIS AG, priority 2012, published 2017).

Experiments:
Type in all cases: cell-based, human
Axin2, YAPC = assay: Axin2 qPCR assay (pathway inhibition); settings: YAPC cells; 3 μM of IWP2
Experimental: (§1) For reverse transcription and quantitative PCR (qPCR), total RNA was extracted from cells or tumors using the RNeasy Plus Mini Kit (Qiagen). 1 μg of RNA were reverse transcribed with Taqman Reverse Transcription Reagents (Applied Biosystems) according to the manufacturer's instruction. Quantitative PCR was performed in 12 μl reactions consisting of 0.6 μl of 20× Taqman probe and PCR primer mix, 6 μl 2× Taqman FAST Advanced Master Mix (Applied Biosystems), and 5.4 μl diluted cDNA template. The thermocycling conditions utilized were 20 seconds at 95° C., followed by 40 cycles of 1 second at 95° C. and 20 seconds at 60° C. All experiments were performed in quadruplicates. Gene expression analysis was performed using the comparative ΔΔCT method and normalized with the housekeeping gene GUSB or 18S. The Taqman probes were purchased from Applied Biosystems.
(§2) Consistent with this observation, treatment of Porcupine inhibitor IWP2 or LGK974 increased the cell surface level of Frizzled and decreased the mRNA levels of AXIN2 and RNF43. See, FIG. 4(b). […] YAPC cells were treated with 3 μM of IWP-2 or 1 μM of LGK974, and subjected to flowcytometry analysis for membrane Frizzled expression.

[1] = tested on: cell surface Frizzled (FZD), YAPC cells; assay: flow cytometry of membrane Frizzled (pan-Frizzled antibody 18R5)
Experimental: YAPC cells were transfected with indicated siRNA, and membrane levels of Frizzled were analyzed by flowcytometry using pan-Frizzled antibody 18R5.
For flow cytometric analysis, cells were harvested using trypsin-free cell dissociation buffer (Invitrogen) and resuspended in FACS buffer (PBS with 1% BSA and 0.02% sodium azide). After blocking, cells were incubated with anti-pan-Frizzled (18R5) antibody for 1 hour at 4° C., followed by incubation with Allophycocyanin (APC)-conjugated goat anti-human IgG secondary antibody. After extensive washes using FACS buffer, cells were stained with propidium iodide (PI) and subjected to multi-channel analysis using BD LSR II flow cytometer.
as §2

[2] = tested on: STF Wnt reporter, YAPC-STF cells; assay: SuperTOPFlash (STF) luciferase reporter assay; settings: absence of exogenous Wnt3a, LGK974 or IWP-2
Experimental: For the luciferase reporter assay, YAPC-STF reporter cells were transfected with siRNA and treated with Wnt3a conditioned medium or compound where applicable. STF luciferase assays were performed using BrightGlo Luciferase Assay kits (Promega) according to the manufacturer's instructions.
To construct pancreatic cell lines expressing STF reporter, HEK293 cells were grown in medium recommended by ATCC supplemented with 10% FBS. Retrovirus or lentivirus was produced from HEK293 cells by standard virus packaging procedure using FuGENE 6 (Roche) transfection reagent. Pancreatic cell lines expressing STF reporter, RNF43 constructs, or DOX-inducible β-catenin shRNA were generated by viral infection and drug selection.
Depletion of RNF43 induces Dvl phosphorylation and β-catenin stabilization. […] RNF43 siRNA-induced STF activity in the absence of exogenous Wnt3a is inhibited by LGK974 and a previously known Porcupine inhibitor IWP-2. Chen B et al. (2009) Nat. Chem. Biol. 5(2):100-7. See, FIG. 3(b), showing that this activity is dependent on the expression of endogenous Wnt proteins.

RNF43 mRNA, YAPC cells = assay: quantitative RT-PCR gene expression analysis; settings: 3 μM of IWP2
Experimental: FIG. 4(a) is a bar graph showing that the depletion of β-catenin decreases mRNA level of AXIN2 and RNF43. Cells were treated with siRNA, and relative mRNA levels of indicated genes were analyzed by quantitative RT-PCR. […] YAPC cells were treated with 3 μM of IWP2 or 1 μM of LGK974, and subjected to gene expression analysis by quantitative RT-PCR.
as §1
Consistent with this observation, treatment of Porcupine inhibitor IWP2 or LGK974 increased the cell surface level of Frizzled and decreased the mRNA levels of AXIN2 and RNF43. See, FIG. 4(b). […]

SMILES: Cc1ccc2nc(NC(=O)CSc3nc4c(c(=O)n3-c3ccccc3)SCC4)sc2c1 [IWP-2, reference compound]
- mRNA level of AXIN2 (Axin2, YAPC): decreased
- Median FZD intensity in FACS ([1]; 3 μM of IWP-2, DMSO 721): 1754
- Median FZD intensity in FACS ([1]; 3 μM of IWP-2, DMSO 721, listed as IWP2): increased
- RNF43 siRNA-induced STF activity [2]: inhibited
- mRNA level of RNF43 (RNF43 mRNA, YAPC cells): decreased
